# According to patent publication EP2826473A1, “NOVEL USE OF PATCHOULOL” (Chengdu Huasun Group Inc., Ltd., priority 2012, dated 2013):
# Like-named read-outs stand apart in the source and are kept apart here.
# Legend:
# [1] = system: influenza virus type A (H2N2); conditions: in vitro; cited from earlier work
# xylene-induced ear edema = conditions: mice, dose-dependent; cited from earlier work
# influenza virus H2N2 = conditions: intragastric administration of 5 mg/(kg·d); cited from earlier work
# Kurthia gibsonii = experiment: in vitro bacteriostatic activity, agar dilution MIC; assay type: cell-based
# Enterococcus faecalis = experiment: as above; assay type: cell-based; conditions: Enterococcus faecalis, read-out: MIC
# Proteus vulgaris = experiment: as above; assay type: cell-based; conditions: Proteus vulgaris 12-1
# Escherichia coli E^- = experiment: as above; assay type: cell-based
# Corynebacterium = experiment: as above; assay type: cell-based; conditions: Coryneba cterium 12-1
# Staphylococcus wameri = experiment: as above; assay type: cell-based
# [2] = system: Staphylococcus aureus ATCC 25923; experiment: prevention of bacterial infection, colony count on patchoulol-coated tubes; conditions: cultured 7 days at 37°C
# Streptococcus bovis = experiment: in vitro bacteriostatic activity, agar dilution MIC; assay type: cell-based; conditions: Streptococcus equinus; Streptococcus bovis 12-3
# influenza virus FM1 = conditions: 30 mg/kg; cited from earlier work
# Staphylococcus sciuri = experiment: in vitro bacteriostatic activity, agar dilution MIC; assay type: cell-based; conditions: Mammaliicoccus sciuri; Staphylococcus sciuri 12-1
# Megasphaera elsdenii = experiment: as above; assay type: cell-based
# Enterobacter cloacae = experiment: as above; assay type: cell-based
# [3] = system: learning and memory ability; conditions: mice, scopolamine, intragastric 80 and 40 mg/kg; cited from earlier work
# Klebsiella pneumonia E^- = experiment: in vitro bacteriostatic activity, agar dilution MIC; assay type: cell-based
# [4] = mouse, in vivo, po; cited from earlier work
# [5] = system: Staphylococcus aureus MSSA; experiment: in vitro bacteriostatic activity, agar dilution MIC; assay type: cell-based; conditions: Staphylococcus aureus, MSSA, read-out: MIC
# Escherichia coli E^+ = experiment: as above; assay type: cell-based
# Description: (§1) Preparation of drug-containing flat plates: patchoulol was diluted by coubling double dilution in DMSO, and 1 ml and 14 ml of sterile MH culture media in different gradient concentrations were respectively added to the disposable sterile petri dishes. Tested drugs were respectively diluted to different gradient concentrations from 768 to 0.006 µg/ml, fully mixed, and dried to reserve. As mentioned above, replacing tested drug with same amount of normal saline was used to prepare positive control plates.
# (§2) Preparation of bacterial liquid: Tested strains and drug-sensitive strains used for quality control were diluted with stroke-physiological saline solution to the concentration of 10^6 CFU/ml.
# (§3) Bacteriostatic activity assay […]: using multipoint inoculation instrument, the tested strain liquid was added to the drug-containing flat plates with different gradient concentrations and positive control plates respectively, and replacing the bacterial liquid with 5 µL normal saline, served as the negative control.
# (§4) Staphylococcus aureus and Staphylococcus epidermidis were cultured at 35-37°C for 18-24 h in MH media (containing 2% NaCl); Streptococcus pneumonia was cultured in brain heart infusion agar media (containing 5% goat blood) within an incubator under 5% CO2 at 35°C for 24 hours; Gram-negative bacteria and other strains were placed in an incubator at 35-37°C and cultured for 18-20 h; Results were observed and recorded.
# (§5) Result assessment: The minimum concentration of drug in no bacterial growth plates was regarded as the minimum inhibitory concentration (MIC) of the drug to the stain.
# Shiglla flexneri = experiment: as above; assay type: cell-based
# Description: as §1, §2, §3, §4, §5
# termites = conditions: in vivo; cited from earlier work
# [6] = system: Staphylococcus epidermidis MRSE; experiment: in vitro bacteriostatic activity, agar dilution MIC; assay type: cell-based
compound,measurement,setting,value
"C[C@H]1CC[C@@]2(O)C(C)(C)[C@@H]3CC[C@@]2(C)[C@H]1C3 (stereo in doubt) [PC, (1R,4S,4aS,6R,8aS)-octahydro-4,8a,9,9-tetramethyl-1,6-methanonaphthalen-1(2H)-ol]",IC50,[1],4.03 ± 0.23 µM
same,xylene-induced ear edema,xylene-induced ear edema,effectively inhibit
same,protective effect on infected model mice,influenza virus H2N2,obvious protective effect
same,MIC,"Kurthia gibsonii; Kurthia gibsonii 12-1, read-out: MIC",50 µg/mL
same,MIC,Kurthia gibsonii; Kurthia gibsonii 12-2,50 µg/mL
same,MIC,"Enterococcus faecalis; ATCC29212, Enterococcus faecalis ATCC 29212",128 µg/mL
same,MIC,"Enterococcus faecalis; ATCC51299, Enterococcus faecalis (high endurance) ATCC 51299",128 µg/mL
same,MIC,Enterococcus faecalis; Enterococcus faecalis 12-11,> 128 µg/mL
same,MIC,Enterococcus faecalis; Enterococcus faecalis 12-12,32 µg/mL
same,MIC,Enterococcus faecalis; Enterococcus faecalis 12-13,128 µg/mL
same,MIC,Enterococcus faecalis; Enterococcus faecalis 12-14,64 µg/mL
same,MIC,Enterococcus faecalis; Enterococcus faecalis 12-17,128 µg/mL
same,MIC,Enterococcus faecalis; Enterococcus faecalis 12-18,128 µg/mL
same,MIC,Enterococcus faecalis; Enterococcus faecalis 12-19,128 µg/mL
same,MIC,Enterococcus faecalis; Enterococcus faecalis 12-20,128 µg/mL
same,MIC,Enterococcus faecalis; Enterococcus faecalis 12-21,64 µg/mL
same,MIC,Enterococcus faecalis; Enterococcus faecalis 12-22,64 µg/mL
same,MIC,Proteus vulgaris,100 µg/mL
same,MIC,Escherichia coli E^-; Escherichia coli E^- 10-12,> 768 µg/mL
same,MIC,Escherichia coli E^-; Escherichia coli E^- 10-18,> 768 µg/mL
same,MIC,Corynebacterium,12.5 µg/mL
same,MIC,Staphylococcus wameri,50 µg/mL
same,bacterial colony numbers,"[2]; 400, 200, 100 and 50 µg/ml, compared with 0 µg/ml",decrease
same,bacterial colony numbers,[2]; patchoulol on intraductal membranes more than or equal to 600 µg/ml,0
same,MIC,Streptococcus bovis,50 µg/mL
same,survival rate of infected mice,influenza virus FM1,improve the survival rate
same,MIC,Staphylococcus sciuri,50 µg/mL
same,MIC,Megasphaera elsdenii; Megasphaera elsdenii 12-1,50 µg/mL
same,MIC,Megasphaera elsdenii; Megasphaera elsdenii 12-2,25 µg/mL
same,MIC,Megasphaera elsdenii; Megasphaera elsdenii 12-3,50 µg/mL
same,MIC,Megasphaera elsdenii; Megasphaera elsdenii 12-4,50 µg/mL
same,MIC,"Enterobacter cloacae; Enterobacter cloacae 12-1, read-out: MIC",50 µg/mL
same,MIC,Enterobacter cloacae; Enterobacter cloacae 12-2,50 µg/mL
same,learning and memory ability,[3],enhance learning and memory ability
same,MIC,Klebsiella pneumonia E^-; Klebsiella pneumonia E^- 10-18,>768 µg/mL
same,MIC,"Klebsiella pneumonia E^-; Klebsiella pneumoniae, Klebsiella pneumonia E^- 10-16, read-out: MIC",> 768 µg/mL
same,maximum tolerated dose,[4],less than 12.5 g/kg
same,MIC,[5]; Staphylococcus aureus MSSA 10-38,1.5 µg/mL
same,MIC,[5]; Staphylococcus aureus MSSA 10-40,1.5 µg/mL
same,MIC,[5]; Staphylococcus aureus MSSA 10-41,1.5 µg/mL
same,MIC,[5]; Staphylococcus aureus MSSA 12-11,128 µg/mL
same,MIC,[5]; Staphylococcus aureus MSSA 12-13,128 µg/mL
same,MIC,[5]; Staphylococcus aureus MSSA 12-14,64 µg/mL
same,MIC,[5]; Staphylococcus aureus MSSA 12-15,128 µg/mL
same,MIC,[5]; Staphylococcus aureus MSSA 12-16,64 µg/mL
same,MIC,[5]; Staphylococcus aureus MSSA 12-17,64 µg/mL
same,MIC,[5]; Staphylococcus aureus MSSA 12-18,128 µg/mL
same,MIC,[5]; Staphylococcus aureus MSSA 12-19,128 µg/mL
same,MIC,[5]; Staphylococcus aureus MSSA 12-20,64 µg/mL
same,MIC,[5]; Staphylococcus aureus MSSA 12-21,64 µg/mL
same,MIC,Escherichia coli E^+; Escherichia coli E^+ 10-7,> 768 µg/mL
same,MIC,Escherichia coli E^+; Escherichia coli E^+ 10-9,> 768 µg/mL
same,MIC,Shiglla flexneri; Shiglla flexneri 12-1,400 µg/mL
same,MIC,"Shiglla flexneri; Shiglla flexneri 12-2, read-out: MIC",50 µg/mL
same,effect on termites,termites,obviously toxic and removal effect
same,MIC,"[6]; Staphylococcus epidermidis MRSE 10-40, read-out: MIC",1.5 µg/mL
same,MIC,"[6]; Staphylococcus epidermidis MRSE 10-44, read-out: MIC",1.5 µg/mL
same,MIC,"[6]; Staphylococcus epidermidis MRSE 12-11, read-out: MIC",128 µg/mL
same,MIC,"[6]; Staphylococcus epidermidis MRSE 12-12, read-out: MIC",32 µg/mL
same,MIC,"[6]; Staphylococcus epidermidis MRSE 12-15, read-out: MIC",32 µg/mL
same,MIC,"[6]; Staphylococcus epidermidis MRSE 12-16, read-out: MIC",32 µg/mL
same,MIC,"[6]; Staphylococcus epidermidis MRSE 12-17, read-out: MIC",32 µg/mL
same,MIC,"[6]; Staphylococcus epidermidis MRSE 12-18, read-out: MIC",32 µg/mL
same,MIC,"[6]; Staphylococcus epidermidis MRSE 12-19, read-out: MIC",32 µg/mL
same,MIC,"[6]; Staphylococcus epidermidis MRSE 12-20, read-out: MIC",128 µg/mL
same,MIC,"[6]; Staphylococcus epidermidis MRSE 12-21, read-out: MIC",128 µg/mL
same,MIC,"[6]; Staphylococcus epidermidis MRSE 12-22, read-out: MIC",32 µg/mL
